Test results published in article PMC6114082, “Synthesis of aminophenylhydroxamate and aminobenzylhydroxamate derivatives and in vitro screening for antiparasitic and histone deacetylase inhibitory activity” (International Journal for Parasitology: Drugs and Drug …, 2018).

Tests used:
[1] = tested on: L. infantum MHOM/MA/67/ITMAP-264; test: Antileishmanial activity, L. infantum promastigotes (luciferase expressing strain); assay type: cell-based, Leishmania infantum
Method: The antitrypanosomatid activity of the compounds was ascertained as follows. Leishmania parasites were cultured at 26 °C in SDM-79 medium supplemented with 10% fetal calf serum (FCS), and the antileishmanial activity was determined according to a previously published protocol for LUC-expressing and wild-type Leishmania ([Sereno et al., 2001], [Abbassi et al., 2008]). Trypanosoma brucei gambiense were grown at 26 °C in Cunningham's medium supplemented with 10% FCS, 2 mM GlutaMAX-1 (Gibco, USA), 100 U/ml penicillin, 100 μg/ml streptomycin and […] bovine hemin. The epimastigote form of Trypanosoma cruzi (strain Y cl7 scl2, lineage Tc2) (kindly provided by Philippe Truc and Christian Barnabé, UMR 177 IRD-CIRAD InterTryp, Montpellier, France) were grown at 26 °C in liver infusion tryptose (LIT) medium, supplemented with 10% FCS, 2 mM GlutaMAX™-I, 100 U/ml penicillin, 100 μg/ml streptomycin and bovine hemin (20 mg/l) (Gibco). The antitrypanosomatids activity was determined using a protocol that was initialy set up for wild-type Leishmania ([Abbassi et al., 2008]). To assess the drug activity on Toxoplasma gondii, confluent human foreskin fibroblast (HFF) monolayers were infected with YFP-type I Rh kindly provided by B. Striepen, see ([Striepen et al., 1998]) or Tomato-type II Pru kindly provided by N. Blanchard (Toulouse), expressing parasites at 5 × 10^4 per well, which were then centrifuged for 30 s at 1300 rpm and incubated for 30 min in a water bath at 37 °C to allow invasion. The wells were then washed three times with PBS to eliminate extracellular parasites, and the drugs were added at various concentrations ranging from 1 to 50 μM. After incubation for 24 h at 37 °C in a humidified atmosphere containing 5% CO2, the cells were fixed in 2.5% methanol-free formaldehyde (Tebu-bio)/PBS for 30 min at room temperature. Nuclei were stained with Hoechst 33258 (2 μg/ml, Molecular Probes) for 20 min and then washed three times with water for 10 min each time. The number of infected cells, i.e., cells harboring a parasitophorous vacuole, and the number of parasites per vacuole were determined using an Olympus ScanR microscope ( × 20 objective) and ScanR software. The parasitic index in % compared to the control was calculated as follows: (PI=((number of parasite/100 cells in treated wells) x (% of infected macrophage in treated well)/(number of parasite/100 cells in untreated wells) x (% of infected macrophage in untreated wells))*100).

HDAC 1 = molecular target: T1, HDAC 1 (Homo sapiens, UniProt Q13547); test: Fluorometric HDAC assay, recombinant HDAC1; assay type: biochemical
T1 construct: purchased Active Motif, Belgium
T1 sequence (Q13547 whole entry): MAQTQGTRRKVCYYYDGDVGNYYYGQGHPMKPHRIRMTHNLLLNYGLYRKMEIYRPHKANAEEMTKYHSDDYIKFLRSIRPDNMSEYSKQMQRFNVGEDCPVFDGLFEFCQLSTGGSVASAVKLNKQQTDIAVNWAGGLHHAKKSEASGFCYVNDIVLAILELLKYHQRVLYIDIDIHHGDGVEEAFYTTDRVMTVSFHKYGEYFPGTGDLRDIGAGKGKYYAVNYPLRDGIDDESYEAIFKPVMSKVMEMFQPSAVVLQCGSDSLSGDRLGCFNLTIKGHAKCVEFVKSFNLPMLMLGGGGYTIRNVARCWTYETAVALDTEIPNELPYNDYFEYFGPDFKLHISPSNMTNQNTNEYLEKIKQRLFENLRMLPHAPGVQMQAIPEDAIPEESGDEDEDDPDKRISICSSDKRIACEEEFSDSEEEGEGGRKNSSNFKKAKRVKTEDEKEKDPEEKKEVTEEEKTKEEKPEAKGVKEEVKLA
Method: The HDACi effect against HeLa nuclear extracts and recombinant proteins were measured using a fluorometric HDAC assay kit (Active Motif, Belgium) according to the manufacturer's instructions. Briefly, 30 μL of HeLa nuclear extract (Active Motif, Belgium) or various HDAC recombinant proteins (Active Motif, Belgium) was mixed with 5 μL of a 10 × compound and 10 μL of assay buffer. A negative control containing trichostatin A at a final concentration of 2 μM was analyzed for each independent experiment. A fluorogenic substrate (10 μL) was added, and the reaction was allowed to proceed for 30 min at room temperature and then stopped by the addition of a developer containing trichostatin A. The fluorescence was monitored after 30 min at excitation and emission wavelengths of 360 and 460 nm, respectively.

HDAC 6 = molecular target: T2, HDAC 6 (Homo sapiens, UniProt Q9UBN7); test: Fluorometric HDAC assay, recombinant HDAC6; assay type: biochemical
T2 construct: purchased Active Motif, Belgium
T2 sequence (Q9UBN7 1-1215): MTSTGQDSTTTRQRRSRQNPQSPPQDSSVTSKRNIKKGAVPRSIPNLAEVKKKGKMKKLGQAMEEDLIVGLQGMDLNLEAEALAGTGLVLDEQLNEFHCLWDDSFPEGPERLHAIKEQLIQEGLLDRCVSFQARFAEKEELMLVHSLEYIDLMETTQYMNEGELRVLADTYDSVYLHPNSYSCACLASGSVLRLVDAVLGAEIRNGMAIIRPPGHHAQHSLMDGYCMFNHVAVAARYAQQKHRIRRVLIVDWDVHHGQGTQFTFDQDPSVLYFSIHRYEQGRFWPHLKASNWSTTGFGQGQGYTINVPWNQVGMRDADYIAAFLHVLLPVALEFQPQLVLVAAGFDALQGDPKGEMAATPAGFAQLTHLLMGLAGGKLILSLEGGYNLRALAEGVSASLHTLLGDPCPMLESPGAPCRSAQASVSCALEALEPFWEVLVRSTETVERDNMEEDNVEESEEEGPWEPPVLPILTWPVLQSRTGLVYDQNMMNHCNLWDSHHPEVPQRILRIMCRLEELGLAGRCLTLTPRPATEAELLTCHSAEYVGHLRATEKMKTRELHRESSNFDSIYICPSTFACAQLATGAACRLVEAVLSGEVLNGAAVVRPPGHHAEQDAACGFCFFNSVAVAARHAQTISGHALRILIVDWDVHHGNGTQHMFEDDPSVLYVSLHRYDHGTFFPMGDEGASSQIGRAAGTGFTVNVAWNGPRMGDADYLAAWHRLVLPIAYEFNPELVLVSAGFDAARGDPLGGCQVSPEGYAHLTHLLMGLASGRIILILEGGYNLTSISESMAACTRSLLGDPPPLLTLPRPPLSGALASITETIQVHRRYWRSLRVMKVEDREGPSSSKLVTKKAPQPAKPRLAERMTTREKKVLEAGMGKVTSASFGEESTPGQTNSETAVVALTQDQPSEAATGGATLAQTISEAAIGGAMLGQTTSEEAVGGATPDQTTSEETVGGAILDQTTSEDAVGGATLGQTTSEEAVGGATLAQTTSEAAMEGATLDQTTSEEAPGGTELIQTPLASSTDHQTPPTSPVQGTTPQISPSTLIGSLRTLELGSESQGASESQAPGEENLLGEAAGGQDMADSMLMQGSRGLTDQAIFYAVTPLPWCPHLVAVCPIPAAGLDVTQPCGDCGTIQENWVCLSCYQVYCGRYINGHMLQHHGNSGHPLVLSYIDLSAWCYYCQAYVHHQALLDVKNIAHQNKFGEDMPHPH
Method: The HDACi effect against HeLa nuclear extracts and recombinant proteins were measured using a fluorometric HDAC assay kit (Active Motif, Belgium) according to the manufacturer's instructions. […] A negative control containing trichostatin A at a final concentration of 2 μM was analyzed for each independent experiment.

## COc1cccc(CC(=O)Nc2ccc(C(=O)NO)cc2)c1 [Compound 363, N-hydroxy-4-[2-(3-methoxyphenyl)acetamido]benzamide]
[1]; IC50 THP-1 / IC50 Leishmania infantum (footnote)
  IS^b selectivity index for L. infantum: <1
[1]; Leishmania infantum, promastigotes, luciferase expressing strain
  IC50: > 60 µM
HDAC 1; 363 as compared to SAHA
  Fold, HDAC 1: 2.43
HDAC 1; recombinant protein, read-out: rHDAC 1 IC50
  IC50: 0.257 ± 0.05 µM
HDAC 6; 363 as compared to SAHA
  Fold, HDAC 6: 34.9
HDAC 6; recombinant protein, read-out: rHDAC 6 IC50
  IC50: 0.045 ± 0.015 µM
